Data published in PMC7845594, “Novel Immune Modulators Enhance Caenorhabditis elegans Resistance to Multiple Pathogens” (mSphere, 2021).

Tested on: C. elegans transcriptome
Assay: Transcriptome profiling (Affymetrix microarrays), differentially expressed genes
Assay type: in vivo, Caenorhabditis elegans
Settings: for Fold Change: downregulated genes
Protocol: To gain additional insight into the effect of LK molecules on C. elegans, young-adult, wild-type worms were treated with each drug at 100 µM for 8 h in the absence of pathogen. RNA was collected, and transcriptome profiling was performed.
Data were determined using Affymetrix microarrays, as described in Materials and Methods. Download Table S3, XLSX file, 0.07 MB.
Transcriptome profiling was performed on ∼6,000 wild-type, young adult worms incubated with either LK molecules or DMSO for 8 h. RNA isolation was performed using TRIzol extraction, followed by cleanup using RNeasy columns according to the manufacturer’s protocol. Each condition was analyzed in triplicate. Microarray data have been deposited in the GEO database, accession number GSE137516. […] Clustering and generation of the heat map was performed using Cluster 3.0 ([98]) and Treeview ([99]), respectively. Fold change of genes were normalized to average fold change of that gene over all clustered conditions. Genes and conditions were clustered using Euclidean distance and average linkages. […] Microarray data for non-LK molecules were collected from GEO omnibus. WormEXP was used as a secondary method for confirming statistical significance of potential pathways stimulated by each of the LK molecules ([100]). Gene ontologies were generated using DAVID ([101], [102]).

[1] = Downregulated genes, Affy_ID 171867_x_at
[2] = Downregulated genes, Affy_ID 176276_s_at

Which results are given for `CCN(CC)/N=N/c1ccc(C(=O)O)cc1` [LK35]?
Fold Change (Affy_ID 171811_s_at, listed under genes K01D12.7 (LK34, LK38), C57047 (LK35), K01D12.15 (LK38)): 0.292; Fold Change (Affy_ID 171867_x_at, listed under genes C09B9.6, F36H12.7, K07F5.1, R05F9.13, R13H9.2, R13H9.4, T13F2.10, T13F2.11, Y59E9AR.1, Y59E9AR.7, ZK354.1): 0.2025; Fold Change (Affy_ID 171880_x_at, listed under genes C24D10.7 and C24D10.8): 0.4703; Fold Change, gene Y59E9AR.1 [1]: 0.2025; Fold Change, gene Y59E9AR.7 [1]: 0.2025; Fold Change, gene ZK354.1 [1]: 0.2025; Fold Change, gene ZK354.10 [1]: 0.2025; Fold Change, gene ZK354.11 [1]: 0.2025; Fold Change, gene ZK354.4 [1]: 0.2025; Fold Change, gene ZK354.5 [1]: 0.2025; Fold Change, gene ZK131.11 (Downregulated genes, Affy_ID 171916_s_at): 0.3792; Fold Change, gene Y59H11AM.1 (Downregulated genes, Affy_ID 172113_x_at): 0.2252; Fold Change, gene Y71H2AL.C (Downregulated genes, Affy_ID 172177_x_at): 0.4472; Fold Change, gene ZK525.1 (Downregulated genes, Affy_ID 172214_x_at): 0.281; Fold Change, gene T23B7.1 (Downregulated genes, Affy_ID 172486_x_at): 0.3276; Fold Change, gene Y105C5A.13 (Downregulated genes, Affy_ID 172627_x_at): 0.07461; Fold Change, gene T28H11.6 (Downregulated genes, Affy_ID 172704_x_at): 0.2084; Fold Change, gene ZK1248.4 (Downregulated genes, Affy_ID 172734_x_at): 0.2437; Fold Change, gene ZK546.3 (Downregulated genes, Affy_ID 172798_x_at): 0.1152; Fold Change, gene ZK131.7 (Downregulated genes, Affy_ID 172871_x_at): 0.3252; Fold Change, gene ZK1248.6 (Downregulated genes, Affy_ID 172887_x_at): 0.1434; Fold Change, gene ZK546.6 (Downregulated genes, Affy_ID 172900_x_at): 0.1383; Fold Change, gene ZK1251.6 (Downregulated genes, Affy_ID 172938_x_at): 0.1992; Fold Change, gene Y43F8B.2 (Downregulated genes, Affy_ID 173326_s_at): 0.3741; Fold Change, gene T27E4.7 (Downregulated genes, Affy_ID 173756_at): 0.207; Fold Change, gene Y54G2A.7 (Downregulated genes, Affy_ID 174102_at): 0.2822; Fold Change, gene ZK809.8 (Downregulated genes, Affy_ID 175557_at): 0.3895; Fold Change, gene ZK112.1 (Downregulated genes, Affy_ID 175995_at): 0.2683; Fold Change, gene Y119D3B.13 (Downregulated genes, Affy_ID 176131_at): 0.2184; Fold Change, gene Y69A2AR.12 [2]: 0.2706; Fold Change, gene Y69A2AR.25 [2]: 0.2706; Fold Change, gene Y71H2AM.13 (Downregulated genes, Affy_ID 176285_s_at): 0.4282; Fold Change, gene Y71G12B.4 (Downregulated genes, Affy_ID 176544_at): 0.3363; Fold Change, gene Y54G2A.14 (Downregulated genes, Affy_ID 177004_s_at): 0.3979; Fold Change, gene Y73B6BL.24 (Downregulated genes, Affy_ID 177183_s_at): 0.3786; Fold Change, gene Y71H2AL.1 (Downregulated genes, Affy_ID 177190_at): 0.2701; Fold Change, gene ZK669.2 (Downregulated genes, Affy_ID 179491_at): 0.1961; Fold Change, gene ZK550.2 (Downregulated genes, Affy_ID 179513_at): 0.2553; Fold Change, gene T23F4.3 (Downregulated genes, Affy_ID 179815_at): 0.0609; Fold Change, gene Y51H4A.7 (Downregulated genes, Affy_ID 180145_s_at): 0.2617; Fold Change, gene T23F4.1 (Downregulated genes, Affy_ID 180223_s_at): 0.03953; Fold Change, gene W04B5.2 (Downregulated genes, Affy_ID 180561_at): 0.4474; Fold Change, gene ZK484.5 (Downregulated genes, Affy_ID 182193_at): 0.3211; Fold Change, gene Y44A6C.1 (Downregulated genes, Affy_ID 182843_at): 0.3152; Fold Change, gene Y45F10A.5 (Downregulated genes, Affy_ID 184558_at): 0.1919; Fold Change, gene T23B12.8 (Downregulated genes, Affy_ID 184855_at): 0.1557; Fold Change, gene Y105C5B.5 (Downregulated genes, Affy_ID 185106_at): 0.254; Fold Change, gene W01A11.6 (Downregulated genes, Affy_ID 186120_at): 0.4275; Fold Change, gene T27A10.7 (Downregulated genes, Affy_ID 186153_s_at): 0.3382; Fold Change, gene Y18D10A.23 (Downregulated genes, Affy_ID 186886_s_at): 0.3476; Fold Change, gene Y105C5A.24 (Downregulated genes, Affy_ID 187121_at): 0.3662; Fold Change, gene ZC416.6 (Downregulated genes, Affy_ID 188470_s_at): 0.2458; Fold Change, gene T25C12.3 (Downregulated genes, Affy_ID 188823_s_at): 0.2936; Fold Change, gene ZK593.1 (Downregulated genes, Affy_ID 189095_at): 0.3436; Fold Change, gene ZK484.2 (Downregulated genes, Affy_ID 189882_at): 0.286; Fold Change, gene ZK131.4 (Downregulated genes, Affy_ID 190307_s_at): 0.2791; Fold Change, gene Y40D12A.2 (Downregulated genes, Affy_ID 191017_at): 0.3228; Fold Change, gene W07B8.5 (Downregulated genes, Affy_ID 191887_s_at): 0.2934; Fold Change, gene Y51A2D.13 (Downregulated genes, Affy_ID 192992_at): 0.2251; Fold Change, gene Y69E1A.5 (Downregulated genes, Affy_ID 193144_at): 0.316; Fold Change, gene Y111B2A.13 (Downregulated genes, Affy_ID 193715_at): 0.4867; Fold Change, gene Y48A6B.7 (Downregulated genes, Affy_ID 193926_at): 0.205; Fold Change, gene ZK666.7 (Downregulated genes, Affy_ID 194066_s_at): 0.1175; Fold Change (Gene AC3.7, Affy_ID 190879_at): 0.1754; Fold Change (Gene B0035.13, Affy_ID 188123_at): 0.2664; Fold Change (Gene C02F5.7, Affy_ID 191772_at): 0.3854; Fold Change (Gene C04G2.4, Affy_ID 172853_x_at): 0.1724; Fold Change (Gene C05C10.4, Affy_ID 189921_at): 0.2517; Fold Change (Gene C05C12.3, Affy_ID 183355_s_at): 0.2041; Fold Change (Gene C06A12.3, Affy_ID 183322_at): 0.4777; Fold Change (Gene C06G3.5, Affy_ID 189941_at): 0.4389; Fold Change (Gene C08E3.1, Affy_ID 172309_x_at): 0.09218; Fold Change (Gene C08E3.13, Affy_ID 172565_x_at): 0.08084; Fold Change (Gene C08F11.13, Affy_ID 175229_at): 0.2613; Fold Change (Gene C14C6.2, Affy_ID 183566_at): 0.2902; Fold Change (Gene C17B7.2, Affy_ID 181325_s_at): 0.2818; Fold Change (Gene C18G1.2, Affy_ID 191147_at): 0.4346; Fold Change (Gene C18H9.6, Affy_ID 187412_at): 0.3068; Fold Change (Gene C24A3.6, Affy_ID 175541_at): 0.3015; Fold Change (Gene C27H5.4, Affy_ID 181334_s_at): 0.3156
